For one data set, the system named is HS explant cultures. The settings on record: cited from earlier work.
A further data set concerns B cells. The following applies: case study; cited from earlier work.
For data set [1] the following is noted: HS patients; cited from earlier work.
The nature of data set [2]: Phase 2b randomized, double-blind, placebo-controlled core study in CSU patients. It counts as in vivo. On the procedure: In a Phase 2b, randomized, double-blind, placebo-controlled trial evaluating the efficacy and safety of LOU064 over 12 weeks in patients inadequately controlled by […], with at least moderately active chronic spontaneous urticaria (CSU), patients received LOU064 10 mg q.d. (once daily), 35 mg q.d., 100 mg q.d., 10 mg b.i.d. (twice daily), 25 mg b.i.d., 100 mg b.i.d., or placebo (1:1:1:1:1:1:1 ratio).
(Table 5) In the long-term exposure of the ES (median 35.14 wks, N=183), the proportion of patients with at least one adverse effect (AE) on remibrutinib treatment (57.4% [n=105]) was similar to the CS (presented through for any remibrutinib dose) (58.1% [n=155]; median 12.14 wks, N=267). In the ES, there were 4 serious adverse effects (SAEs), 6 AEs leading to treatment discontinuation and no deaths. The incidences of AEs by […] (SOC) reported in the ES and CS were similar: infections and infestations (23.0% and 24.0%), followed by skin/subcutaneous tissue disorder (17.5% and 16.9%) (Table 5). […] Incidence of AESI in the ES such as infections (23%), bleeding (4.4%) and cytopenias (0.5%) were in line with the CS. Newly occurring notable transaminase increases were single in both ES (isolated ALT>3×ULN, normalized within 4 weeks, in 1 patient discontinued early for personal reasons) and CS (ALT>5×ULN in 1 patient, normalised on treatment).

The target in data set [3] is T1, BTK (Homo sapiens, UniProt Q06187).
T1 construct: simulate BTK occupancy in human spleen/tissues; from tissue; host or cells: human spleen / lymph node / peripheral tissue B cells (simulated, not measured)
The data set is described as follows: Phase I clinical study (Kaul et al. 2021): PK, BTK occupancy in blood, short-term safety. It is filed as in vivo. The source says: BTK occupancy in blood is not an informative biomarker for the purpose of dose selection due to LOU064 pharmacological properties (irreversible binding). […] Occupancy in tissue may be more representative of the expected efficacy of LOU064.
Pharmacokinetic data from a Phase I clinical study reported by Kaul et al. (2021) were used in the current analysis, including 102 patients.
A population PK model has been developed to describe the interim PK from a Phase I clinical study reported by Kaul et al. (2021). […] Overall the resulting population model described the PK data reasonably well.

The target of data set [4] is T1, BTK. The following applies: single or multiple doses 0.5 mg to 600 mg up to 18 days; 100 and 200 mg b.i.d. up to 12 days; cited from earlier work.
Data set [5] in a line: Co-administration of LOU064 with oral contraceptives. The following applies: in vivo. The source says:
Therefore, in a preferred embodiment, LOU064 is co-administered with oral contraceptives.

Data set [6] is described as follows: 52-week open label extension study in CSU subjects (interim analyses).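 Further: Open-label extension assessing long-term safety and tolerability in CSU patients previously enrolled in the Phase 2b trial, dosed at 100 mg b.i.d.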 It is filed as in vivo.
Experimental: In a 52-week open label extension study to evaluate the long-term safety and tolerability of LOU064 in eligible subjects with CSU who participated in the Phase 2b study the dose used was 100 mg b.i.d.
Table 4 presents the safety summary observed in the Phase 2b study up to the cut-off date for the interim analysis.
For data set [7] the following is noted: cited from earlier work.
For data set [8] the following is noted: higher dose treatment arms; cited from earlier work.
The conditions of data set [9]: human, in vivo; cited from earlier work.
Setting [10] is: CS, CSU patients, Any dose, N = 267, listed as remibrutinib.
Where [11] appears, read: 100 mg B.I.D., N = 100, interim analysis cut off 31 Aug. 2020.
Where [12] appears, read: 100 mg b.i.d., N = 100 interim analysis.
Setting [13] is: ES, CSU patients, 100 mg b.i.d., N = 183, median 35.14 wks, listed as remibrutinib.
Setting [14] is: Phase 2b core and extension study.

Where “and” joins values, the source holds several entries; their conditions need not be identical. Equal values may be shown once. Read-outs that look alike come from different tables or passages of the source.

T1 sequence (Q06187 whole entry): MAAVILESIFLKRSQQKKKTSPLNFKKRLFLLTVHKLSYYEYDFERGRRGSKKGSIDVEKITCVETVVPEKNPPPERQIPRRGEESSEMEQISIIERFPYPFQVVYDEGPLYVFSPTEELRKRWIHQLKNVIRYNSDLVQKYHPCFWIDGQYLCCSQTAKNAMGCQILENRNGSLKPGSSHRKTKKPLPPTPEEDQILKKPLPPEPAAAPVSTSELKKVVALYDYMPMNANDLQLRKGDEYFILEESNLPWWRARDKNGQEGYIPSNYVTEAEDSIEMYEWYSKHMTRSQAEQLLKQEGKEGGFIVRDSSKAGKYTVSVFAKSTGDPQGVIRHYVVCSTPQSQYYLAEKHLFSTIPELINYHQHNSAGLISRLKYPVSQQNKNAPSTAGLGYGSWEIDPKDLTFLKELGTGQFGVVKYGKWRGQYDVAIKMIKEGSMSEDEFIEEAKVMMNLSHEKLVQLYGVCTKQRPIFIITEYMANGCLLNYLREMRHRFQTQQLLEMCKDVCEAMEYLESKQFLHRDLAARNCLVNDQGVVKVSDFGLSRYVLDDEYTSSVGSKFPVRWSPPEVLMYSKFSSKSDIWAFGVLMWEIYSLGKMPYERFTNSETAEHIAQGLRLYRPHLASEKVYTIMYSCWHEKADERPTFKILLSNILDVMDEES

As to “rituximab: B-cell depletor, CD20 antagonist”, the “effect in HS explant cultures” value in the data set with HS explant cultures was “anti-inflammatory effects”. Further, the “outcome of HS treatment using B-cell depletion” value in the data set on B cells is “successful treatment of HS”.

adalimumab: in [1], the “patients with suboptimal therapeutic responses” value is listed as approximately 40%.

Turning to `C=CC(=O)N(C)CCOc1c(N)ncnc1-c1cc(F)cc(NC(=O)c2ccc(C3CC3)cc2F)c1C` [LOU064, N-(3-(6-amino-5-(2-(N-methylacrylamido)ethoxy)pyrimidin-4-yl)-5-fluoro-2-methylphenyl)-4-cyclopropyl-2-fluorobenzamide], in [2] (25 mg b.i.d. regimen, 12 weeks, CSU inadequately controlled by antihistamines), the “efficacy in CSU compared to the other doses” value is on record as “particularly effective”. In data set [2] (setting [10]), the “AEs by PT: Headache” value stood at 9.7%; the “AEs by primary system organ class: Infections and infestations” value is 24.0%; the “AEs by primary system organ class: Skin and subcutaneous tissue disorders” value (“AEs … Skin and subcutaneous tissue disorders” for short) was 16.9%. In addition, the “Newly occurring notable transaminase increases: ALT>5×ULN, normalised on treatment” value in [2] (CS, any remibrutinib dose) stood at 1 patient. Further, on BTK [3] (doses lower than 50 mg, no difference at higher doses), the “change in clearance after repeated dosing” value was “lower clearance at steady state at Day 12 when compared to Day 1”. The “BTK occupancy in blood” value at BTK [3] (low doses) is recorded as “reaches full occupancy even at low doses”. In addition, the Short-term safety result at BTK [4] is “has been shown”. For the same compound, the “impact on exposure and efficacy of co-administered oral contraceptives (ethinylestradiol or levonorgestrel)” value in data set [5] was “without a major impact on their exposure and efficacy”. In data set [6] (setting [11]), the Death is listed as 0 n (%), the “Discontinued study due to an SAE(s)” value is on record as 0 n (%), the “Discontinued study due to any AE(s)” value is 0 n (%) and the “Non-fatal SAE” value is recorded as 3 (3.0) n (%). Also, in data set [6] (setting [11]), the “Treatment interruption due to AE(s)” value was 5 (5.0) n (%) and the “Treatment interruption due to SAE(s)” value is 1 (1.0) n (%). In data set [6] (100 mg B.I.D., N = 100, interim analysis cut off 31 Aug. 2020, median exposure 17.86 weeks), the “Patients with AE(s)” value is recorded as 58 (58) n (%). The safety signal result in [6] (100 mg b.i.d., 100 subjects, median exposure 17.86 weeks) is “No safety signal has been observed”. In data set [6] (setting [12]), the “SAEs reported (ovarian cyst, chest pain, appendicitis; none related to study drug)” value is “Three”; the “SOC Infections and infestations” value is reported as 14%; the “SOC Skin and subcutaneous tissue disorders” value is recorded as 13%; the “adverse event preferred term: diarrhea” value is 4%. Further, in data set [6] (setting [12]), the “adverse event preferred term: dizziness” value worked out at 3%; the “adverse event preferred term: gastroenteritis” value came to 3%; the “adverse event preferred term: headache” value is given as 6%; the “bleeding events or events under SOC Blood and lymphatic system disorders” value is “no bleeding events”. The “subjects who experienced at least one treatment emergent AE” value in data set [6] (setting [12]) came out at 58%. In addition, the “dose-limiting liver enzyme elevations and other off-target-effects” value in data set [6] (100 mg b.i.d., up to 52 weeks) was “does not induce any dose-limiting liver enzyme elevations and other off-target-effects”. Also, in data set [6] (ES, 100 mg b.i.d., N=183), the “Incidence of AESI: bleeding” value turned out to be 4.4%; the “Incidence of AESI: cytopenias” value worked out at 0.5%; the “Incidence of AESI: infections” value stood at 23%; the “Newly occurring notable transaminase increases: isolated ALT>3×ULN, normalized within 4 weeks” value is recorded as 1 patient. Besides, the deaths result in data set [6] (ES, 100 mg b.i.d., N=183, median 35.14 wks) is “no deaths”. Besides, the “AEs … Skin and subcutaneous tissue disorders” value in data set [6] (ES, CSU patients, 100 mg b.i.d., N = 183, median 35.14 wks) stood at 32 n. Moreover, in data set [6] (setting [13]), the “AEs by PT: Headache” value turned out to be 6.6%; the “AEs by primary system organ class: Infections and infestations” value is on record as 23.0%; the “AEs … Skin and subcutaneous tissue disorders” value was 17.5%; the “Discontinued study treatment due to AE(s)” value stood at 6 n. Also, in data set [6] (setting [13]), the “Patients with SAE(s)” value came to 4 n. In [6] (setting [14]), the “ECG findings or QT of >500 ms” value was “no significant ECG findings or QT of >500 ms noted in any patient”, the “analysis of laboratory parameters” value is recorded as “did not reveal significant safety concerns” and the vital signs result is reported as “no clinically meaningful changes”. Also, the “safety profile over longer-term exposure” value in data set [6] (whole dose range, 100 mg bid up to 52 wks, patients with CSU) is given as “no new safety signals”.

Take `C=CC(=O)N1CCC(CNc2ncnc(N)c2-c2ccc(Oc3ccccc3)cc2)CC1` [evobrutinib]: the dose-limiting side effects entry in data set [7] (75 mg b.i.d., Phase II clinical studies) is “dose-limiting liver enzyme elevations”.

Take `C[C@H]1CN(C2COC2)CCN1c1ccc(Nc2cc(-c3ccnc(N4CCn5c(cc6c5CC(C)(C)C6)C4=O)c3CO)cn(C)c2=O)nc1` [fenebrutinib]: the “subjects with transient grade 3 elevations of ALT and/or AST” value in data set [8] is 8.3% and 6.3%.

With `CC#CC(=O)N1CCC[C@H]1c1nc(-c2ccc(C(=O)Nc3ccccn3)cc2)c2c(N)nccn12` [Acalabrutinib], the “commonly observed adverse reactions” value in [9] is “infection, headache, and diarrhea”.

With `C=CC(=O)N1CCC[C@@H](n2c(=O)n(-c3ccc(Oc4ccccc4)cc3)c3c(N)nccc32)C1` [tolebrutinib], the dose-limiting side effects result in data set [7] (human, in vivo) is given as “dose-limiting diarrhea”.

The values are drawn from patent publication US20250099465A1, “REMIBRUTINIB FOR USE IN THE TREATMENT OF HIDRADENITIS SUPPURATIVA” (NOVARTIS AG, priority 2022, published 2025).
